Measurements reported in PubChem BioAssay AID1963978 (Molecular Pharmacology Branch, DTP, NCI, 2024).

Tested on: 616215-338-R-J1-PDC spheroids with HUVEC/MSC, viability
Experiment: Anticancer human tumor 616215-338-R-J1-PDC patient-derived colon adenocarcinoma cell line growth inhibition [PI3K]
Conditions: for viability, T/C: stronger effect = lower value
In short: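 High-throughput combination screen: PI3K inhibitors crossed with targeted small molecules on complex spheroids of tumor cells, HUVEC and MSCs at 37 degrees C, 5% CO2. Top concentration was at or near clinical Cmax (otherwise 10 microM), with half-log decrements.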

[1] = curve of first compound, second compound 0.00316 µM
[2] = curve of first compound, second compound 0.01 µM
[3] = curve of first compound, second compound 0.0316 µM
[4] = curve of first compound, second compound 0.1 µM
[5] = curve of first compound, second compound 0.316 µM
[6] = curve of first compound, second compound 1 µM
[7] = second compound 0.00316 µM, first compound 0.0316 µM
[8] = second compound 0.00316 µM, first compound 0.1 µM
[9] = second compound 0.00316 µM, first compound 0.316 µM
[10] = second compound 0.00316 µM, first compound 1 µM
[11] = second compound 0.00316 µM, first compound 3.16 µM
[12] = second compound 0.00316 µM, first compound 10 µM
[13] = second compound 0.01 µM, first compound 0.0316 µM
[14] = second compound 0.01 µM, first compound 0.1 µM
[15] = second compound 0.01 µM, first compound 0.316 µM
[16] = second compound 0.01 µM, first compound 1 µM
[17] = second compound 0.01 µM, first compound 3.16 µM
[18] = second compound 0.01 µM, first compound 10 µM
[19] = second compound 0.0316 µM, first compound 0.0316 µM
[20] = second compound 0.0316 µM, first compound 0.1 µM
[21] = second compound 0.0316 µM, first compound 0.316 µM
[22] = second compound 0.0316 µM, first compound 1 µM
[23] = second compound 0.0316 µM, first compound 3.16 µM
[24] = second compound 0.0316 µM, first compound 10 µM
[25] = second compound 0.1 µM, first compound 0.0316 µM
[26] = second compound 0.1 µM, first compound 0.1 µM
[27] = second compound 0.1 µM, first compound 0.316 µM
[28] = second compound 0.1 µM, first compound 1 µM
[29] = second compound 0.1 µM, first compound 3.16 µM
[30] = second compound 0.1 µM, first compound 10 µM
[31] = second compound 0.316 µM, first compound 0.0316 µM
[32] = second compound 0.316 µM, first compound 0.1 µM
[33] = second compound 0.316 µM, first compound 0.316 µM
[34] = second compound 0.316 µM, first compound 1 µM
[35] = second compound 0.316 µM, first compound 3.16 µM
[36] = second compound 0.316 µM, first compound 10 µM
[37] = second compound 1 µM, first compound 0.0316 µM
[38] = second compound 1 µM, first compound 0.1 µM
[39] = second compound 1 µM, first compound 0.316 µM
[40] = second compound 1 µM, first compound 1 µM
[41] = second compound 1 µM, first compound 3.16 µM
[42] = second compound 1 µM, first compound 10 µM
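Further: spheroids exposed to agents for seven days before the viability read.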

Compound: CNC(=O)c1ccc(N2C(=S)N(c3ccc(C#N)c(C(F)(F)F)c3)C(=O)C2(C)C)cc1F + CC(Nc1ccc2c(c1)OCCn1cc(N3C(=O)OCC3C(F)F)nc1-2)C(N)=O
- IC50 [1]: > 10 µM
- IC50 [2]: > 10 µM
- IC50 [3]: > 10 µM
- IC50 [4]: > 10 µM
- IC50 [5]: > 10 µM
- IC50 [6]: > 10 µM
- viability, T/C [7]: 102%
- viability, T/C [8]: 89.1%
- viability, T/C [9]: 101%
- viability, T/C [10]: 94.5%
- viability, T/C [11]: 112%
- viability, T/C [12]: 100%
- viability, T/C [13]: 94.7%
- viability, T/C [14]: 101%
- viability, T/C [15]: 98.3%
- viability, T/C [16]: 105%
- viability, T/C [17]: 99.7%
- viability, T/C [18]: 95%
- viability, T/C [19]: 105%
- viability, T/C [20]: 94%
- viability, T/C [21]: 102%
- viability, T/C [22]: 97.9%
- viability, T/C [23]: 99.8%
- viability, T/C [24]: 102%
- viability, T/C [25]: 102%
- viability, T/C [26]: 87.2%
- viability, T/C [27]: 110%
- viability, T/C [28]: 97.7%
- viability, T/C [29]: 96.2%
- viability, T/C [30]: 108%
- viability, T/C [31]: 95%
- viability, T/C [32]: 113%
- viability, T/C [33]: 107%
- viability, T/C [34]: 102%
- viability, T/C [35]: 102%
- viability, T/C [36]: 94.5%
- viability, T/C [37]: 104%
- viability, T/C [38]: 94.2%
- viability, T/C [39]: 102%
- viability, T/C [40]: 104%
- viability, T/C [41]: 104%
- viability, T/C [42]: 86.7%

Compound: CC(C)n1nc(-c2ccc3oc(N)nc3c2)c2c(N)ncnc21 + CC(Nc1ncnc2nc[nH]c12)c1cc2cccc(Cl)c2c(=O)n1-c1ccccc1
- IC50 [3]: > 0.1 µM
- IC50 [4]: > 0.1 µM
- IC50 [5]: > 0.1 µM
- IC50 [6]: > 0.1 µM
- IC50 (curve of first compound, second compound 3.16 µM): > 0.1 µM
- IC50 (curve of first compound, second compound 10 µM): > 0.1 µM
- viability, T/C (second compound 0.0316 µM, first compound 0.000316 µM): 102%
- viability, T/C (second compound 0.0316 µM, first compound 0.001 µM): 103%
- viability, T/C (second compound 0.0316 µM, first compound 0.00316 µM): 102%
- viability, T/C (second compound 0.0316 µM, first compound 0.01 µM): 124%
- viability, T/C [19]: 112%
- viability, T/C [20]: 86.9%
- viability, T/C (second compound 0.1 µM, first compound 0.000316 µM): 103%
- viability, T/C (second compound 0.1 µM, first compound 0.001 µM): 121%
- viability, T/C (second compound 0.1 µM, first compound 0.00316 µM): 99.8%
- viability, T/C (second compound 0.1 µM, first compound 0.01 µM): 109%
- viability, T/C [25]: 120%
- viability, T/C [26]: 88.6%
- viability, T/C (second compound 0.316 µM, first compound 0.000316 µM): 95.5%
- viability, T/C (second compound 0.316 µM, first compound 0.001 µM): 92.8%
- viability, T/C (second compound 0.316 µM, first compound 0.00316 µM): 118%
- viability, T/C (second compound 0.316 µM, first compound 0.01 µM): 110%
- viability, T/C [31]: 101%
- viability, T/C [32]: 77.4%
- viability, T/C (second compound 1 µM, first compound 0.000316 µM): 94.8%
- viability, T/C (second compound 1 µM, first compound 0.001 µM): 106%
- viability, T/C (second compound 1 µM, first compound 0.00316 µM): 99.2%
- viability, T/C (second compound 1 µM, first compound 0.01 µM): 118%
- viability, T/C [37]: 122%
- viability, T/C [38]: 80.5%
- viability, T/C (second compound 3.16 µM, first compound 0.000316 µM): 123%
- viability, T/C (second compound 3.16 µM, first compound 0.001 µM): 103%
- viability, T/C (second compound 3.16 µM, first compound 0.00316 µM): 111%
- viability, T/C (second compound 3.16 µM, first compound 0.01 µM): 115%
- viability, T/C (second compound 3.16 µM, first compound 0.0316 µM): 128%
- viability, T/C (second compound 3.16 µM, first compound 0.1 µM): 68.5%
- viability, T/C (second compound 10 µM, first compound 0.000316 µM): 110%
- viability, T/C (second compound 10 µM, first compound 0.001 µM): 110%
- viability, T/C (second compound 10 µM, first compound 0.00316 µM): 102%
- viability, T/C (second compound 10 µM, first compound 0.01 µM): 113%
- viability, T/C (second compound 10 µM, first compound 0.0316 µM): 112%
- viability, T/C (second compound 10 µM, first compound 0.1 µM): 66.8%

Compound: C=CC(=O)N1CCN(c2nc(=O)n(-c3c(C)ccnc3C(C)C)c3nc(-c4c(O)cccc4F)c(F)cc23)C(C)C1 (stereo not given) + CC(Nc1ccc2c(c1)OCCn1cc(N3C(=O)OCC3C(F)F)nc1-2)C(N)=O
- IC50 [1]: > 10 µM
- IC50 [2]: > 10 µM
- IC50 [3]: > 10 µM
- IC50 [4]: > 10 µM
- IC50 [5]: > 10 µM
- IC50 [6]: > 10 µM
- viability, T/C [7]: 95.9%
- viability, T/C [8]: 101%
- viability, T/C [9]: 86.8%
- viability, T/C [10]: 103%
- viability, T/C [11]: 100%
- viability, T/C [12]: 87.5%
- viability, T/C [13]: 91.8%
- viability, T/C [14]: 100%
- viability, T/C [15]: 84.2%
- viability, T/C [16]: 98.1%
- viability, T/C [17]: 99.1%
- viability, T/C [18]: 95.6%
- viability, T/C [19]: 102%
- viability, T/C [20]: 106%
- viability, T/C [21]: 110%
- viability, T/C [22]: 103%
- viability, T/C [23]: 95.6%
- viability, T/C [24]: 90.9%
- viability, T/C [25]: 89.8%
- viability, T/C [26]: 92.6%
- viability, T/C [27]: 91.1%
- viability, T/C [28]: 97.3%
- viability, T/C [29]: 98%
- viability, T/C [30]: 84.2%
- viability, T/C [31]: 114%
- viability, T/C [32]: 99.3%
- viability, T/C [33]: 95.7%
- viability, T/C [34]: 100%
- viability, T/C [35]: 97.8%
- viability, T/C [36]: 105%
- viability, T/C [37]: 101%
- viability, T/C [38]: 96.7%
- viability, T/C [39]: 105%
- viability, T/C [40]: 97.1%
- viability, T/C [41]: 90.6%
- viability, T/C [42]: 81.6%

Compound: CC(C)NCC(C(=O)N1CCN(c2ncnc3c2C(C)CC3O)CC1)c1ccc(Cl)cc1 (stereo not given) + CC(Nc1ccc2c(c1)OCCn1cc(N3C(=O)OCC3C(F)F)nc1-2)C(N)=O
- IC50 [1]: 6.44 µM
- IC50 [2]: 5.88 µM
- IC50 [3]: 5.98 µM
- IC50 [4]: 4.99 µM
- IC50 [5]: 5.13 µM
- IC50 [6]: 3.76 µM
- viability, T/C [7]: 86.5%
- viability, T/C [8]: 95.8%
- viability, T/C [9]: 95.8%
- viability, T/C [10]: 98.2%
- viability, T/C [11]: 69.9%
- viability, T/C [12]: 37.7%
- viability, T/C [13]: 88.5%
- viability, T/C [14]: 102%
- viability, T/C [15]: 90.4%
- viability, T/C [16]: 110%
- viability, T/C [17]: 70%
- viability, T/C [18]: 32.9%
- viability, T/C [19]: 97.7%
- viability, T/C [20]: 104%
- viability, T/C [21]: 98%
- viability, T/C [22]: 98.1%
- viability, T/C [23]: 65.8%
- viability, T/C [24]: 37.2%
- viability, T/C [25]: 95%
- viability, T/C [26]: 94.6%
- viability, T/C [27]: 95%
- viability, T/C [28]: 93.6%
- viability, T/C [29]: 65.7%
- viability, T/C [30]: 26.1%
- viability, T/C [31]: 110%
- viability, T/C [32]: 99.9%
- viability, T/C [33]: 95.5%
- viability, T/C [34]: 103%
- viability, T/C [35]: 65.9%
- viability, T/C [36]: 28%
- viability, T/C [37]: 106%
- viability, T/C [38]: 95.5%
- viability, T/C [39]: 105%
- viability, T/C [40]: 88.9%
- viability, T/C [41]: 54%
- viability, T/C [42]: 29.3%

Compound: C#Cc1c(F)ccc2cc(O)cc(-c3ncc4c(N5CC6CCC(C5)N6)nc(OCC56CCCN5CC(F)C6)nc4c3F)c12 (stereo not given)
- viability, T/C (compound 0.0316 µM): 97.3% [middle of 4 runs]
- viability, T/C (compound 0.1 µM): 96.7% [middle of 4 runs]
- viability, T/C (compound 0.316 µM): 105% [middle of 4 runs]
- viability, T/C (compound 1 µM): 96.1% [middle of 4 runs]
- viability, T/C (compound 3.16 µM): 95% [middle of 4 runs]
- viability, T/C (compound 10 µM): 83% [middle of 4 runs]
- IC50 (curve of compound): > 10 µM
